Measurements as given in patent publication US20250000843A1, “LIGNAN-INSPIRED COMPOUNDS, METHODS OF MAKING, AND USING THEREOF” (IOWAIBO, INC., priority 2023, published 2025).

Experiments:
[1] = test system: MCF7 (human breast cancer cell line); assay: MTT toxicity assay in MCF7 breast cancer cells; format: cell-based
Protocol: Toxicity of the dibenzyl butyl lactone derivative (3-[(3,4-dimethoxyphenyl)cyclopentyl], 4-[(3-hydroxyphenol)methyl]oxolan-2-one) in breast cancer cells was evaluated using MTT assay. The MTT toxicity test is a colorimetric assay to measure cells' metabolic activity by serving as a substrate of cellular enzymes that reduce the tetrazolium orange dye, MTT (3-(4,5-Dimethylthiazol-2-yl)-2,5-diphenyltetrazolium bromide) to its insoluble, formazan, giving a purple color. The rate of conversion is directly proportional to cells' mitochondrial metabolic activity via NAD (P) H-dependent cellular oxidoreductase enzymes and serves as a surrogate marker of cell viability.
Cultures of MCF7 (human breast cancer cell line) working stock (5 passages) were established under standard culture conditions in Eagle's minimum essential medium (EMEM). EMEM was supplemented with 10% fetal bovine serum (FBS), 2 mM Glutamine and Pen/Strep, and Penicillin 0.01 mg/ml.
Cells previously expanded were seeded in 96 well plates at 1.9×10^5 and 9.6×10^4 cells/plate for 24- and 72-hours treatment respectively. This concentration is known to show the best window for the MTT assay, with better sensitivity and low variability.
5 mg of powdered enterolactone, dibenzyl butyl lactone derivative enantiomer A, and dibenzyl butyl lactone derivative enantiomer B were dissolved in 500 μl of DMSO at room temperature. Eight-point curves, ⅓ dilutions (highest concentration 125 μM), were prepared.
Twenty-four hours following the seeding process, the cells were washed once with phosphate buffered saline (PBS) and treated with the respective compounds in cell culture media. Each condition was tested in triplicates. For positive and negative controls, 8 mM methyl methane sulfonate (MMS) and DMSO 100% were used respectively.
Following compound addition, the plates were incubated for 24 and 72 hours. After the treatment period, cells were washed twice with PBS and media was replaced with MTT reagent at 0.5 mg/ml in Dulbecco's modified Eagle medium (DMEM) without phenol red. The plates were gently shaken and incubated for 4 hours. After the incubation the medium was removed and replaced by DMSO. The plates were gently shaken to solubilize the formazan crystals. Absorbance was measured using an Envision multiplate reader at a wavelength of 570 nm.
Eight serial dilutions were prepared (125.00, 41.67, 13.89, 4.63, 1.54, 0.51, 0.17 and 0.06 µM to evaluate the compounds (in triplicate). MTT results showing cell death values above 20% are considered as having a significant toxic effect.
MTT assay results are shown in Tables 2-7 and expressed as the percentage of cell death after treatment.

[2] = test system: human induced pluripotent stem (iPS) cells; format: cell-based
Protocol: The dibenzyl butyl lactone derivative enantiomer A and B were compared to enterolactone and tested to determine toxicity using a human pluripotent stem (hPS) cell-based assay that predicts the developmental toxicity potential. […] The current study was conducted using human induced pluripotent stem (iPS) cells.
The impact of test article exposure on ornithine and cystine metabolism in human induced pluripotent stem (iPS) cells was measured for three test articles (dibenzyl butyl lactone derivative enantiomer A, dibenzyl butyl lactone derivative enantiomer B, and enterolactone) and prediction of the potential for developmental toxicity was made through application of the hPS cell-based assay. Exposure spanned a range of eight treatment levels per test article ranging from 0.03-100 μM.
The observed decrease in the o/c ratio following exposure to each test article is indicative of the potential for developmental toxicity and/or embryo lethality in vivo at or above the dTP concentration. FIGS. 15A-C show the o/c ratio of dibenzyl butyl lactone derivative enantiomer A (FIG. 15A), dibenzyl butyl lactone derivative enantiomer B (FIG. 15B), and (+/−) enterolactone (FIG. 15C). The graphs in FIGS. 15A-C show the cell viability and o/c/ ratio over concentrations of 0.03-100 μM with the straight horizontal line illustrating the developmental toxicity threshold of 0.85.

## O=C1OC[C@H](Cc2cccc(O)c2)[C@H]1Cc1cccc(O)c1 (racemic) [Enterolactone, reference compound]
[1]; MCF7, 24 hours, 0.06 μM
  Cell death #1 (%): −11.97%
  Cell death #2 (%): −41.20%
  Cell death #3 (%): −33.13%
  Cell death (%) MEAN: −28.77%
[1]; MCF7, 24 hours, 0.17 μM
  Cell death #1 (%): −14.66%
  Cell death #2 (%): −12.36%
  Cell death #3 (%): −5.43%
  Cell death (%) MEAN: −10.82%
[1]; MCF7, 24 hours, 0.51 μM
  Cell death #1 (%): 2.26%
  Cell death #2 (%): −23.51%
  Cell death #3 (%): −19.28%
  Cell death (%) MEAN: −13.51%
[1]; MCF7, 24 hours, 1.54 μM
  Cell death #1 (%): −16.20%
  Cell death #2 (%): −16.97%
  Cell death #3 (%): −21.20%
  Cell death (%) MEAN: −18.13%
[1]; MCF7, 24 hours, 4.63 μM
  Cell death #1 (%): −5.05%
  Cell death #2 (%): −19.28%
  Cell death #3 (%): −25.82%
  Cell death (%) MEAN: −16.71%
[1]; MCF7, 24 hours, 13.89 μM
  Cell death #1 (%): −10.05%
  Cell death #2 (%): −8.13%
  Cell death #3 (%): −3.51%
  Cell death (%) MEAN: −7.23%
[1]; MCF7, 24 hours, 41.67 μM
  Cell death #1 (%): −30.05%
  Cell death #2 (%): −30.43%
  Cell death #3 (%): −40.43%
  Cell death (%) MEAN: −33.64%
[1]; MCF7, 24 hours, 125.00 μM
  Cell death #1 (%): −13.51%
  Cell death #2 (%): −8.13%
  Cell death #3 (%): 7.64%
  Cell death (%) MEAN: −4.66%
[1]; MCF7, 72 hours, 0.06 μM
  Cell death #1 (%): −30.40%
  Cell death #2 (%): −23.70%
  Cell death #3 (%): −42.46%
  Cell death (%) MEAN: −32.19%
[1]; MCF7, 72 hours, 0.17 μM
  Cell death #1 (%): −67.59%
  Cell death #2 (%): −62.23%
  Cell death #3 (%): −65.91%
  Cell death (%) MEAN: −65.24%
[1]; MCF7, 72 hours, 0.51 μM
  Cell death #1 (%): −66.25%
  Cell death #2 (%): −61.22%
  Cell death #3 (%): −61.89%
  Cell death (%) MEAN: −63.12%
[1]; MCF7, 72 hours, 1.54 μM
  Cell death #1 (%): −70.27%
  Cell death #2 (%): −54.19%
  Cell death #3 (%): −60.89%
  Cell death (%) MEAN: −61.78%
[1]; MCF7, 72 hours, 4.63 μM
  Cell death #1 (%): −53.85%
  Cell death #2 (%): −66.92%
  Cell death #3 (%): −69.26%
  Cell death (%) MEAN: −63.34%
[1]; MCF7, 72 hours, 13.89 μM
  Cell death #1 (%): −48.83%
  Cell death #2 (%): −38.44%
  Cell death #3 (%): −39.11%
  Cell death (%) MEAN: −42.13%
[1]; MCF7, 72 hours, 41.67 μM
  Cell death #1 (%): −22.36%
  Cell death #2 (%): −24.04%
  Cell death #3 (%): −22.70%
  Cell death (%) MEAN: −23.03%
[1]; MCF7, 72 hours, 125.00 μM
  Cell death #1 (%): 88.19%
  Cell death #2 (%): 90.54%
  Cell death #3 (%): 89.20%
  Cell death (%) MEAN: 89.31%
[2]
  cytotoxicity compared with the other test articles: less cytotoxic than dibenzyl butyl lactone derivative enantiomers A and B
[2]; human
  TP Concentration: 230.8 µM
  dTP Concentration: 21.8 µM
  similarity of dTP concentrations between all three compounds: ≤ 2 fold
